From patent US20250295679A1, “Compositions and Dosage Forms for Treatment of HPV Infection and HPV-Induced Neoplasia” (priority 2022, published 2025)

Tests used:
[1] = Bulk (accelerated) stability, one week, HPLC and XRPD; details: for Bulk (HPLC) Purity: 1 week
Protocol: Bulk stability: Accelerated stability experiments were conducted at 25° C./92% RH and 40° C./75% RH in an open container, 60° C. in a tight container for one week.
Samples were characterized by XRPD and HPLC and inspected for color change.
Accelerated stability experiments were conducted at 25° C./92% RH in an open container, at 40° C./75% RH in an open container, and at 60° C. in a tight container for one week.

[2] = Solubility in buffers, water and simulated vaginal fluid at 37° C.; details: for pH of solution at 2 hours: 37° C.
Protocol: About 4 mg of Compound I Pattern 1 was added into 2 mL of buffer solution.
(§1) Solubility was tested in five media, pH 3.0 citrate buffer, pH 4.5 acetate buffer, pH 6.8 phosphate buffer, water, simulated vaginal fluid (pH 4.2) at 37° C. for 0.5 h and 2 h.
The salt amount used is equivalent to 10 mg anhydrous free base. […] The obtained clear solutions were analyzed by pH meter for pH, and solubility was determined by observation.
as §1

[3] = Polymorph screening by equilibration in solvents; format: physicochemical
[4] = Hygroscopicity by DVS at 25° C.; format: physicochemical; details: cycle of 40-0-95-0-45% relative humidity
[5] = Hygroscopicity by DVS at 25° C.; format: physicochemical; details: for XRPD after DVS test: 25° C.
Protocol: Hygroscopicity was investigated by DVS at 25° C., using the following method: • Method: 40-0-95-0-40% RH, dm/dt=0.002

[6] = 37 °C, pH 3, aqueous buffer, thermodynamic from solid
[7] = 37 °C, pH 4.2, fassgf or other biorelevant, thermodynamic from solid
[8] = 37 °C, pH 4.5, aqueous buffer, thermodynamic from solid
[9] = 37 °C, pH 6.8, aqueous buffer, thermodynamic from solid
[10] = 37 °C, water, thermodynamic from solid

In the case of CCOC(=O)[C@H](C)N[P@](=O)(COCCn1cnc2c(OC)nc(N)nc21)OCc1ccccc1.O=C(O)/C=C/C(=O)O (single isomer, unassigned) [Compound III], the “Stability after exposure to the three conditions” value ([1]; 25° C./92% RH open, 40° C./75% RH open, 60° C. tight container, one week) is reported as “good physical stability”, the “Bulk (HPLC) Purity” value ([1]; BS1: solid state, 25° C./92% RH, open container) is reported as 98.7% and the “Bulk (HPLC) Purity” value ([1]; BS2: solid state, 40° C./75% RH, open container) is reported as 97.2%. For the same molecule, the “Bulk (HPLC) Purity” value ([1]; BS3: solid state, 60° C., tight container) was 97.3%, the “HPLC purity, Initial” value ([1]; initial chemical purity before storage) was 98.8% and the solubility at 0.5 h [2, 6] was over 2000 µg/mL. For the same molecule, the solubility at 2 h [2, 6] was over 2000 µg/mL, the solubility at 0.5 h [2, 7] was over 2000 µg/mL and the solubility at 2 h [2, 7] was over 2000 µg/mL. The solubility at 0.5 h [2, 8] was over 2000 µg/mL, the solubility at 2 h [2, 8] was over 2000 µg/mL and the solubility at 0.5 h [2, 9] was over 2000 µg/mL. For the same molecule, the solubility at 2 h [2, 9] was over 2000 µg/mL, the solubility ([2]; 37 °C, thermodynamic from solid) was over 2000 µg/mL and the solubility at 0.5 h [2, 10] was over 2000 µg/mL. For the same molecule, the solubility at 2 h [2, 10] was over 2000 µg/mL, the “pH of solution at 2 hours” value ([2]; ES1: pH 3.0, 100 mM citrate buffer) was 2.83 and the “pH of solution at 2 hours” value ([2]; ES2: pH 4.5, 50 mM acetate buffer) was 4.12. For the same molecule, the “pH of solution at 2 hours” value ([2]; ES3: pH 6.8, 50 mM phosphate buffer) was 6.44, the “pH of solution at 2 hours” value ([2]; ES4: Water) was 2.78 and the “pH of solution at 2 hours” value ([2]; ES5: Simulated vaginal fluid (pH adjusted by 0.1N NaOH)) was 5.37. For the same molecule, the “Crystal modification after 1 week equilibration at 25° C.” value (“Crystal modification” below) ([3]; PS1: IPA) was “Compound V Pattern 2”, the “Crystal modification” value ([3]; PS2: Heptanes) was “Compound III Pattern 2” and the “Crystal modification” value ([3]; PS3: Water) was “Compound III Pattern 3”. The “Crystal modification” value ([3]; PS4: ACN) was “Compound III Pattern 4”, the “Crystal modification” value ([3]; PS5: MEK) was “Compound III Pattern 5” and the “Crystal modification” value ([3]; PS7: IPA/heptanes (3/10, v/v)) was “Compound III Pattern 2”. For the same molecule, the “Crystal modification” value ([3]; PS8: water/ACN (2.9/97.1, v/v)) was “Compound III Pattern 4”, the “Crystal modification” value ([3]; PS9: IPA/MTBE (1/3, v/v)) was “Compound III Pattern 6” and the “Crystal modification” value ([3]; PS10: EA/toluene (1/3, v/v)) was “Compound III Pattern 2”. The “Dissociation of the salt during equilibration experiments” value ([3]; equilibration in solvents, 1 week, 25° C.) was “dissociation was observed”, the “Fold increase of retained water content over Compound II” value [4] was 40 fold and the “Desorp. (%) Cycle 1” value ([5]; DVS 25° C., 0% RH) was 0.00%. For the same molecule, the “Desorp. (%) Cycle 2” value ([5]; DVS 25° C., 0% RH) was 0.00%, the “Sorp. (%) Cycle 1” value ([5]; DVS 25° C., 0% RH) was 0.00% and the “Sorp. (%) Cycle 2” value ([5]; DVS 25° C., 0% RH) was 0.00%. For the same molecule, the “Desorp. (%) Cycle 1” value ([5]; DVS 25° C., 10% RH) was 0.07%, the “Desorp. (%) Cycle 2” value ([5]; DVS 25° C., 10% RH) was 0.07% and the “Sorp. (%) Cycle 1” value ([5]; DVS 25° C., 10% RH) was 0.07%. For the same molecule, the “Sorp. (%) Cycle 2” value ([5]; DVS 25° C., 10% RH) was 0.07%, the “Desorp. (%) Cycle 1” value ([5]; DVS 25° C., 20% RH) was 0.15% and the “Desorp. (%) Cycle 2” value ([5]; DVS 25° C., 20% RH) was 0.15%. The “Sorp. (%) Cycle 1” value ([5]; DVS 25° C., 20% RH) was 0.14%, the “Sorp. (%) Cycle 2” value ([5]; DVS 25° C., 20% RH) was 0.14% and the “Desorp. (%) Cycle 1” value ([5]; DVS 25° C., 30% RH) was 0.23%. The “Desorp. (%) Cycle 2” value ([5]; DVS 25° C., 30% RH) was 0.23%, the “Sorp. (%) Cycle 1” value ([5]; DVS 25° C., 30% RH) was 0.22% and the “Sorp. (%) Cycle 2” value ([5]; DVS 25° C., 30% RH) was 0.22%. For the same molecule, the “Desorp. (%) Cycle 1” value ([5]; DVS 25° C., 40% RH) was 0.30%, the “Desorp. (%) Cycle 2” value ([5]; DVS 25° C., 40% RH) was 0.32% and the “Sorp. (%) Cycle 1” value ([5]; DVS 25° C., 40% RH) was 0.29%. The “Sorp. (%) Cycle 2” value ([5]; DVS 25° C., 40% RH) was 0.30%, the “Desorp. (%) Cycle 2” value ([5]; DVS 25° C., 50% RH) was 0.41% and the “Sorp. (%) Cycle 1” value ([5]; DVS 25° C., 50% RH) was 0.39%. The “Desorp. (%) Cycle 2” value ([5]; DVS 25° C., 60% RH) was 0.52%, the “Sorp. (%) Cycle 1” value ([5]; DVS 25° C., 60% RH) was 0.47% and the “Desorp. (%) Cycle 2” value ([5]; DVS 25° C., 70% RH) was 0.67%. For the same molecule, the “Sorp. (%) Cycle 1” value ([5]; DVS 25° C., 70% RH) was 0.59%, the “Desorp. (%) Cycle 2” value ([5]; DVS 25° C., 80% RH) was 0.81% and the “Sorp. (%) Cycle 1” value ([5]; DVS 25° C., 80% RH) was 0.71%. The “Desorp. (%) Cycle 2” value ([5]; DVS 25° C., 90% RH) was 0.97%, the “Sorp. (%) Cycle 1” value ([5]; DVS 25° C., 90% RH) was 0.92% and the “Desorp. (%) Cycle 2” value ([5]; DVS 25° C., 95% RH) was 1.01%. The “Sorp. (%) Cycle 1” value ([5]; DVS 25° C., 95% RH) was 1.01%, the Hygroscopicity ([5]; DVS at 25° C., in words) was “slightly hygroscopic” and the “XRPD after DVS test” value ([5]; after DVS 40-0-95-0-40% RH) was “No form change”. For the same molecule, the “XRPD after DVS test” value ([5]; after humidity cycle 40-0-95-0-40% RH, listed as Compound III Pattern 2, monofumarate) was “No form change”, the “XRPD after DVS test” value ([5]; after humidity cycle 40-0-95-0-40% RH, monofumarate) was “lose one of the peaks” and the Water uptake ([5]; up to / in 95% RH, DVS 25° C.) was “about 1.0%”.
